# Measurements reported in patent publication US10287616B2, “Label free biosensors, gram-negative bacteria detection, and real-time and end point determination of antibiotic effects” (priority 2015, dated 2019).
# Like-named read-outs stand apart in the source and are kept apart here.
# What was measured:
# E. coli W1485 [1] = experiment: End point antibiotic susceptibility test with Con A biosensor, square wave voltammetry readout; assay type: cell-based, Escherichia coli; conditions: 18 hours, FIG. 24B inset
# Description: In the end point measurement, four samples containing 2×10^5 cells/mL of E. coli obtained from log phase in fresh LB culture were prepared. […] The four samples were incubated for 18 hours, 37° C., 280 rpm on an orbital environmental shaker. Finally, 1 μL of the E. coli culture from the each prepared sample was introduced to the Con A biosensor in 1 mL of 10 mM HEPES buffer (pH 7.4) for QCM and electrochemical biosensor measurements, respectively. The sample without addition of any antibiotic was used as control.
# The concentrations used were based on the literature and current clinically used dosages. The sample without any antibiotic was used as a control. As mentioned above, E. coli W1485 was used as the model Gram-negative bacterial analyte. E. coli W1485 is a “semirough” bacterial strain in which the intact LPS core is capped by a single O-antigen subunit consisting of glucose, N-acetylglucosamine, galactose, and rhamnose in the ratio 1.8:1.0:0.7:0.6, which has been confirmed by the sodium dodecyl sulfate polyacrylamide gel electrophoresis (SDS-PAGE) method. Con A binds specifically at α-D-mannosyl and α-D-glucosyl residues (two hexoses differing only by the alcohol on carbon 2) in the terminal position of ramified structures from β-glycans (reach in α-mannose, or hybrid and biantennary glycanes complexes).
# E. coli W1485 [2] = conditions: for ΔR (Ω) / ΔR/R0 (%): 30 mg/L antibiotic added after E. coli attached; for ΔR (Ω) / ΔR/R0 (%) / ΔF (Hz): FIG. 25A; for frequency after antibiotic addition: 2 hour period after addition, from 350, 350 and 370 Hz before addition; for reduction of binding to (LPS activity, real time analysis): 1 hour time point; for ΔF (Hz): 30 mg/L antibiotic added after E. coli attached to sensor
# Description: The gold QCM electrode consisted of a thin AT-cut quartz crystal wafer with vapor deposited gold electrode on each side (10 MHz, non-polished with 1000 A gold, geometric area is 0.22 cm2, International Crystal Company). For all QCM test, the gold electrode was mounted on the side of a KeI-F cell chamber. Frequency monitoring was performed using a Maxtek RQCM quartz crystal microbalance research instrument. Baseline was recorded in 1 mL of 10 mM HEPES buffer containing 1 mM Ca^2+ and 1 mM Mn^2+. Each of the bacterial samples to be analyzed was then added into the detection sensor cell after stabilization of resonance frequency (shift less than 1 Hz·min-1). A small magnetic stir bar was used to increase the mass transfer through convection. The frequency changes (ΔF) of the QCM were monitored using a network/spectrum/impedance analyzer (Agilent 4395A) controlled by a PC via an Intel card.
# (§1) For the real time measurements, Con A sensor was mounted in a biosensor cell containing 1 mL of 10 mM HEPES buffer (pH 7.4). Real time QCM measurements were obtained for each experimental step. First, 1 μL of 5×10^8 cells/mL E. coli obtained from the stationary phase was added into the biosensor cell. When frequency reached a constant value, it was washed with 1 mL of 10 mM HEPES buffer to remove the unbound E. coli. […] The frequency changes vs time and the damping resistance vs time were recorded by QCM.
# Different types of antibiotics have differing abilities to alter the LPS properties and subsequent reduction in their binding. This can be used as an indicator for the antibiotic effects for killing the bacteria or inhibiting their growth. The biosensor ability to quantitatively measure these parameters real time was tested. For that purpose, the Con A sensor was exposed to 1 μL of 5×10^8 cells/mL E. coli to capture the bacteria via Con A-LPS binding. The unbound E. coli was removed by washing with 1 mL of 10 mM HEPES buffer.
# E. coli W1485 [3] = experiment: Real time experiment, SWV signal after 3 hours of incubation with antibiotic; assay type: cell-based, Escherichia coli; conditions: 30 mg/L antibiotic; for SWV sensor signal: without antibiotic 0.37 μA
# Description: Electrochemical measurements were performed on a GAMRY 4-channel electrochemical workstation. A three-electrode electrochemical cell composed of a Con A sensor as working electrode, platinum wire as counter electrode and Ag/AgCl (saturated KCl) electrode as reference electrode, was used. Square wave voltammetric measurements were performed under ambient conditions (21-23° C.). Each measurement had been repeated at least three times with independently prepared Con A sensors.
# as §1
# Different types of antibiotics have differing abilities to alter the LPS properties and subsequent reduction in their binding. This can be used as an indicator for the antibiotic effects for killing the bacteria or inhibiting their growth. The biosensor ability to quantitatively measure these parameters real time was tested. For that purpose, the Con A sensor was exposed to 1 μL of 5×10^8 cells/mL E. coli to capture the bacteria via Con A-LPS binding. The unbound E. coli was removed by washing with 1 mL of 10 mM HEPES buffer. […] In the three separate measurements shown in FIG. 25A, it can be clearly seen that the initial parts of the curves which are related to E. coli immobilization are almost coinciding to each other. This real time QCM measurement also allows us to observe the reproducibility of the sensor performance. In the last parts of the curves, when different antibiotics are added, their variable effects in killing the bacteria and reducing their binding caused a variable shift of the frequency. This shift was opposite in direction to what was obtained by bacterial addition which is indicative of reduced binding. These responses (shown in the inset) provided the quantitative details of this effect. […] Due to real time nature of this experiment, the frequency and damping resistance change were much smaller than that of FIGS. 24A and 24B. This confirms that the antibiotic drug effect on LPS is a slow process but the high sensitivity sensor disclosed herein allows such subtle changes to be measured. Moreover, the results of the QCM and Electrochemical measurements are validating each other again. […]
SMILES,increase of the SWV signal as compared to control (E. coli W1485 [1]; 0.1 mg/L antibiotic) [folds],ΔR (Ω) (E. coli W1485 [2]),ΔR/R0 (%) (E. coli W1485 [2]),frequency after antibiotic addition (E. coli W1485 [2]; 30 mg/L) [Hz],"reduction of binding to (LPS activity, real time analysis) (E. coli W1485 [2]; 30 mg/L) [%]","reduction of binding to (LPS activity, real time analysis) (E. coli W1485 [2]; 30 mg/L, listed as Ciprofloxacin) [%]",SWV sensor signal (E. coli W1485 [3]) [μA],ΔF (Hz) (E. coli W1485 [2]),"decrease in frequency (fold of value before antibiotic) (E. coli W1485 [2]; 30 mg/L, 2 hour period after antibiotic addition) [fold]","reduction of binding to (LPS activity, real time analysis) (E. coli W1485 [2]; 30 mg/L, listed as Ceftriaxone) [%]","SWV sensor signal, fold of signal without antibiotic (E. coli W1485 [3]) [fold]",increase of the SWV signal as compared to control (E. coli W1485 [1]; 10 mg/L antibiotic) [folds],"reduction of binding to (LPS activity, real time analysis) (E. coli W1485 [2]; 30 mg/L, listed as Tetracycline) [%]"
O=C(O)c1cn(C2CC2)c2cc(N3CCNCC3)c(F)cc2c1=O [ciprofloxacin],7.2,−2.0 Ω,−0.6,320,91,91,0.89,,,,,,
CO/N=C(\C(=O)N[C@@H]1C(=O)N2C(C(=O)O)=C(CSc3nc(=O)c(=O)[nH]n3C)CS[C@H]12)c1csc(N)n1 [ceftriaxone],4.8,−2.2 Ω,−0.7,325,93,,0.92,−25,0.93,93,2.50,,
CN(C)[C@@H]1C(O)=C(C(N)=O)C(=O)[C@@]2(O)C(O)=C3C(=O)c4c(O)cccc4[C@@](C)(O)[C@H]3C[C@@H]12 [tetracycline],,−2.0 Ω,−0.6,350,95,,0.65,−20,,,,2,95
